Legend:
[1] = system: Human cytomegalovirus (HCMV); assay: Anti-HCMV cytopathogenicity test; type: cell-based; conditions: for IC50: Human betaherpesvirus 5, 144 h, NHDF cells, 6 days, cytopathogenic effect, read-out: IC50, antiviral activity in vitro; for SI (selectivity index): antiviral activity in vitro
Protocol: Human cytomegalovirus (HCMV), DavisSmith (ATCC VR807) or AD169 (ATCC VR538) strain, is grown in vitro on human embryonic prepuce fibroblasts (NHDF cells). After the NHDF cells have been infected with a multiplicity of infection (M.O.I.) of 0.01, the virus-infected cells are harvested 5-10 days later and stored in the presence of minimal essential medium (MEM), 10% fetal calf serum (FCS) with 10% DMSO at −80° C. A cell-free stock is produced by removing only the cell culture supernatant and immediately freezing at −80° C. After serial ten-fold dilutions of the virus-infected cells or of the cell culture supernatant of the virus-infected cells (cell-free virus), the titer is determined on 24-well plates of confluent NHDF cells after vital staining with neutral red.
(§1) The test compounds are employed as 50 millimolar (mM) solutions in dimethyl sulfoxide (DMSO). Ganciclovir®, Foscarnet® and Cidofovir® are used as reference compounds. After addition of in each case 2 μl of the 50, 5, 0.5 and 0.05 mM DMSO stock solutions to 98 μl portions of cell culture medium in row 2 A-H for duplicate determinations, 1:2 dilutions are carried out with 50 μl portions of medium up to row 11 of the 96-well plate. The wells in rows 1 and 12 each contain 50 μl of medium. 150 μl of a suspension of 1×10^4 cells (human prepuce fibroblasts [NHDF]) are then pipetted into each of the wells (row 1=cell control) and, in rows 2-12, a mixture of HCMV-infected and uninfected NHDF cells (M.O.I.=0.001-0.002), i.e. 1-2 infected cells per 1000 uninfected cells. Row 12 (without substance) serves as virus control. The final test concentrations are 250-0.0005 μM. The plates are incubated at 37° C./5% CO2 for 6 days, i.e. until all the cells are infected in the virus controls (100% cytopathogenic effect [CPE]). The wells are then fixed and stained by adding a mixture of formalin and Giemsa's dye (30 minutes), washed with double-distilled water and dried in a drying oven at 50° C. The plates are then assessed visually using an overhead microscope (plaque multiplier from Technomara).

[2] = system: HCMV AD169 clone with mutation in UL86 R435C; assay: Susceptibility (IC50) of resistant HCMV AD169 clone R435C; type: cell-based, Human cytomegalovirus; conditions: Human betaherpesvirus 5, read-out: IC 50, R435C
Protocol: as §1
For this purpose, NHDF cells are seeded in tissue culture vessels. 5×10^3 cells per well are seeded in 96-well plates and infected with cell-free HCMV AD169 with an moi of 0.03. The infections are cultivated under substance pressure which corresponds to 10 times the IC50 of the substance. Preferably, 30-100 96-well plates inoculated as described are made up. […] Finally, viral stocks are produced as described above and frozen. Serial ten-fold dilution of the virus-infected cells or of the cell culture supernatant of the virus-infected cells is followed by determination of the titer on 24-well plates of confluent NHDF cells after vital staining with neutral red. Finally, the susceptibility to various substances (IC50 determination) is determined as described above.
The HCMVAD169 mutants selected as described above are grown in vitro on human embryonic prepuce fibroblasts (NHDF cells) under substance pressure (10×IC50 HCMVAD169). After infection of the NHDF cells with a multiplicity of infection (M.O.I) of 0.01, the virus-infected cells are harvested 5-10 days later, and the total DNA is isolated from these cells with the aid of established standard methods (e.g. phenol extraction and ethanol precipitation). Qiagen Sequencing Services (Qiagen, Hilden) determined, after amplification of the viral UL86 gene by PCR, the DNA sequence, which was then transcribed into protein sequence. Compared with the initial strain HCMV AD169, the differences shown in table 2 were detectable in the protein sequence of the major capsid protein (UL86) in the resistant viruses. The IC50 values [μM] of various substances on these mutants compared with the initial strain are likewise indicated. (n.d.=not measured). […] Depending on the nature of the substance, certain mutations lead to various extents of resistance.

[3] = system: HCMV Davis or HCMV AD169; assay: HCMV Xenograft Gelfoam model; type: in vivo, immunodeficient mice; conditions: oral treatment over 8 days, infectious virus particles vs placebo-treated control; approximate results
Description: 3-4-week old female immunodeficient mice (16-18 g), Fox Chase SCID or Fox Chase SCID-NOD or SCID beige, are purchased from commercial breeders (Bomholtgaard, Jackson, USA). The animals are housed under sterile conditions (including bedding and feed) in isolators.
Collagen sponges 1×1×1 cm in size (Gelfoam®; from Peasel & Lorey, order No. 407534; K. T. Chong et al., Abstracts of 39th Interscience Conference on Antimicrobial Agents and Chemotherapy, 1999, p. 439) are initially wetted with phosphate-buffered saline (PBS), the trapped air bubbles are removed by degassing, and then stored in MEM+10% FCS. 1×10^6 virus-infected NHDF cells (infection with HCMV Davis or HCMV AD169 M.O.I.=0.03) are detached 3 hours after infection and added in a drop of 20 μl of MEM, 10% FCS, to a moist sponge. 12-13 hours later, the infected sponges are incubated with 25 μl of PBS/0.1% BSA/1 mM DTT with 5 ng/μl basic fibroblast growth factor (bFGF). For the transplantation, the immunodeficient mice are anesthetized with Avertin or a ketamine/xylazine/azepromazine mixture, the fur on the back is removed using a shaver, the epidermis is opened 1-2 cm, unstressed and the moist sponges are transplanted under the dorsal skin. The surgical wound is closed with tissue glue. 6 hours after the transplantation, the mice are treated for the first time (one treatment is given on the day of the operation). On subsequent days, oral treatment with the substance is carried out three times a day (7.00 h and 14.00 h and 19.00 h), twice a day (8 h and 18 h) or once a day (14 h) over a period of 8 days. The daily dose is for example 3 or 10 or 30 or 60 or 100 mg/kg of body weight, the volume administered is 10 ml/kg of body weight. The substances are formulated in the form of a 0.5% strength Tylose suspension with 2% DMSO or a 0.5% strength Tylose suspension. […] The number of infectious virus particles after the substance treatment compared with the placebo-treated control group is determined.

Structure (SMILES)	IC50 [1] [µM]	SI (selectivity index) [1]	IC50 [2] [µM]	ED50, antiviral activity in vivo [3] [mg/kg/day]	melting point [°C]
CC1(C)CC(=O)NN=C1c1cccc(NC(=O)Nc2ccc(F)cc2F)c1 [Example 1, N-(2,4-Difluorophenyl)-N′-[3-(4,4-dimethyl-6-oxo-1,4,5,6-tetrahydro-3-pyridazinyl)phenyl]urea]	1	125	1.5	50	213
CC1(C)CC(=O)NN=C1c1cc(NC(=O)Nc2cc(F)ccc2F)ccc1O [Example 2, N-(2,5-Difluorophenyl)-N′-[3-(4,4-dimethyl-6-oxo-1,4,5,6-tetrahydro-3-pyridazinyl)-4-hydroxyphenyl]urea]	0.4	325	0.5	45	
CCCCC(=O)Nc1ccc(NC(=O)Nc2ccc(F)c(Cl)c2)cc1 [Example 4, N-[4-({[(3-Chloro-4-fluorophenyl)amino]carbonyl}amino)phenyl]pentanamide]	0.08	750	> 60	70	

— patent publication US20070004735A1, “Method for inhibiting the replication of herpes viruses” (priority 2003, published 2007)
